Reference: PubChem BioAssay AID624167 (Sanford-Burnham Center for Chemical Genomics, 2012)
Calls of active or inactive are those of the source.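 The calls were made as follows: active = mean IC50 for reducing PEG3 promoter reporter signal at or below a set limit, with IC50 above the limit in both counter screens; inactive = the rest, including counter screen hits.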

What was measured:
PEG-3 [1] = molecular target: PEG-3 (UniProt Q6IN02); assay: Peg3 promoter luciferase inhibitors, potency, dose response, cell-based, HeLa, CREF/GAPDH counter-screen panel (AID 624167); details: HeLa PEG-Prom luciferase reporter, overnight, CREF/GAPDH counter-screens, mean of runs
[2] = as above; details: CREF/GAPDH counter-screens; GAPDH; mean of runs
PEG-3 [3] = assay: as above; details: HeLa PEG-Prom luciferase reporter, overnight, CREF/GAPDH counter-screens
GAPDH = assay: as above; details: CREF/GAPDH counter-screens
Rat fibroblasts (CREF) = assay: as above; details: CREF/GAPDH counter-screens
[4] = run 1, dose range 1, individual replicate IC50 per panel
[5] = run 2, dose range 1, individual replicate IC50 per panel

Sequence of PEG-3 (UniProt Q6IN02) (Q6IN02 whole entry, looked up): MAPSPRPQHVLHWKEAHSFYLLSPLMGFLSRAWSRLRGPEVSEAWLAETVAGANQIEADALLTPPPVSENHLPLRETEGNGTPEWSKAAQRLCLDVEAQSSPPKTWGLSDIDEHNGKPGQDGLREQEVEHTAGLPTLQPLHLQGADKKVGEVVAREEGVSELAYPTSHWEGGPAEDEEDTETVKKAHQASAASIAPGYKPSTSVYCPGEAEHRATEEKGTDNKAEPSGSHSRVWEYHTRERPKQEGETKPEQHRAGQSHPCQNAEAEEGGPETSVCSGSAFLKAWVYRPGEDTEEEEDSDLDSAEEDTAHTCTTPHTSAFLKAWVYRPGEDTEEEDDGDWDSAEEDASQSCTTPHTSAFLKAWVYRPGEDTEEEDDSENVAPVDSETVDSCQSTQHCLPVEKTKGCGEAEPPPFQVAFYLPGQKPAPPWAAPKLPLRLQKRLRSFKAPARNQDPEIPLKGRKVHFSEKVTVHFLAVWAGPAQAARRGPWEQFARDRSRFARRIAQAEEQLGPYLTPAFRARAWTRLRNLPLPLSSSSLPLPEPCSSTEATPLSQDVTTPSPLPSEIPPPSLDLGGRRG

SMILES	IC50 (PEG-3 [1])	IC50 [2]	IC50 (PEG-3 [3]; [4]) [µM]	IC50 (PEG-3 [3]; [5]) [µM]	IC50 (GAPDH; [4]) [µM]	IC50 (GAPDH; [5]) [µM]	IC50 (Rat fibroblasts (CREF); mean of runs)	IC50 (Rat fibroblasts (CREF); [4]) [µM]	IC50 (Rat fibroblasts (CREF); [5]) [µM]
Cc1ccc(C(C[N+](=O)[O-])Sc2ccc(N)cc2)cc1 (centres undefined)	8.04 µM	18.6 µM	9.59	6.49	21.1	16.1	62.8 µM (inactive)	25.6	> 100
CCCC(=O)NC(c1ccccc1)c1ccc2cccnc2c1O (centres undefined)	2.47 µM	> 100 µM (inactive)	3.04	1.91	> 100	> 100	13.1 µM	0.587	25.7
CCCCC(=O)NC(c1ccccc1)c1ccc2cccnc2c1O (centres undefined)	inactive	> 100 µM (inactive)	2.84	> 100	> 100	> 100	> 100 µM (inactive)	> 100	> 100
O=C(c1ccco1)N1CCN(C(c2ccccc2Cl)c2nnnn2Cc2cccs2)CC1 (centres undefined)	inactive	inactive	3.28	> 100	14.5	58.7	> 100 µM (inactive)	> 100	> 100
Cc1cc(C)c(C)c(S(=O)(=O)N2CCN(C(=O)c3cc(=O)[nH]c4ccccc34)CC2)c1C	9.32 µM	inactive	13.6	5.06	24.9	36.8	55.2 µM (inactive)	> 100	10.3
COc1ccc(/C=C2/CCCC(CN(C)C)C2=O)cc1 (centres undefined)	9.68 µM	inactive	11.3	8.07	38.2	23.9	28.8 µM	23.6	34
Cc1ccc(/C=C2\SC(=S)N(CCCC(=O)NNC(=O)c3ccccc3O)C2=O)cc1	0.95 µM	5.04 µM	1.71	< 0.2	2.65	7.43	> 100 µM (inactive)	> 100	> 100
COc1cccc2c1C(=O)c1c(O)c3c(c(O)c1C2=O)CC(O)(C(C)=NNC(=O)c1ccc(Cl)c(Cl)c1)CC3OC1CC(N)C(O)C(C)O1 (centres undefined)	0.954 µM	7.16 µM	1.43	0.476	3.35	11	0.588 µM	0.717	0.46
CC(C)CC1C(=O)N(Cc2cn(Cc3ccco3)nn2)CCS(=O)(=O)N1Cc1ccc(-c2ccc(F)cc2)cc1 (centres undefined)	8.24 µM	inactive	10.4	6.09	> 100	47.1	67.5 µM (inactive)	> 100	34.9
CC(C)(C)c1ccc(Cn2c(=O)cnc3ccccc32)cc1	inactive	6.22 µM	5.23	> 100	5.99	6.44	51 µM (inactive)	> 100	1.93
Nc1nonc1-n1nnc(C(=O)N/N=C/c2cc(Br)ccc2O)c1CNc1ccccc1	10.9 µM	inactive	4.19	17.6	45.2	59.3	77.8 µM (inactive)	> 100	55.7
